Measurements from ChEMBL document CHEMBL1155654, “Acylated flavonol glycosides from the flower of Inula britannica” (J Nat Prod, 2000).
Values after ≈ are worked out from the molar mass of the structure shown. Active and inactive are the calls of the source. The calls are words filed in the database; no cut-off is given here.

Experiments:
HL-60 [1] = test: Antioxidant activity in human HL60 cells assessed as inhibition of TPA-induced free radical formation; format: functional, cell-based
HL-60 [2] = test: Antioxidant activity in human HL60 cells assessed as reduction of cytochrome-c […]; format: functional, cell-based
[3] = test system: Radical scavenging activity; test: Antioxidant activity assessed as DPPH free radical scavenging activity; format: functional

COc1c(O[C@@H]2O[C@H](COC(=O)C(C)C)[C@@H](O)[C@H](O)[C@H]2O)cc2oc(-c3ccc(O)c(O)c3)c(O)c(=O)c2c1O
Activity (HL-60 [1]): Active | IC50 (HL-60 [2]): 10.6 µg/mL (≈ 18.8 µM) | IC50 [3]: 14.3 µg/mL (≈ 25.3 µM)

COc1c(O[C@@H]2O[C@H](COC(=O)CC(C)C)[C@@H](O)[C@H](O)[C@H]2O)cc2oc(-c3ccc(O)c(O)c3)c(O)c(=O)c2c1O
Activity (HL-60 [1]): Active | IC50 (HL-60 [2]): 11.7 µg/mL (≈ 20.2 µM) | IC50 [3]: 14.3 µg/mL (≈ 24.7 µM)

CCC(C)C(=O)OC[C@H]1O[C@@H](Oc2cc3oc(-c4ccc(O)c(O)c4)c(O)c(=O)c3c(O)c2OC)[C@H](O)[C@@H](O)[C@@H]1O (some centres undefined)
Activity (HL-60 [1]): Active | IC50 (HL-60 [2]): 11.2 µg/mL (≈ 19.4 µM) | IC50 [3]: 23.5 µg/mL (≈ 40.6 µM)

O=c1c(O[C@@H]2O[C@H](CO)[C@@H](O)[C@H](O)[C@H]2O)c(-c2ccc(O)cc2)oc2cc(O)cc(O)c12 [ASTRAGALIN]
IC50 (HL-60 [2]): > 50 µg/mL | IC50 [3]: > 100 µg/mL

COc1c(O)cc2oc(-c3ccc(O)c(O)c3)c(OC)c(=O)c2c1O [AXILLARIN]
Activity (HL-60 [1]): Active | IC50 (HL-60 [2]): 2.9 µg/mL (≈ 8.37 µM) | IC50 [3]: 12.4 µg/mL (≈ 35.8 µM)

O=C(O)c1cc(O)c(O)c(O)c1 [GALLIC ACID]
IC50 (HL-60 [2]): 3.2 µg/mL (≈ 18.8 µM) | IC50 [3]: 3.7 µg/mL (≈ 21.7 µM)

COc1c(O[C@@H]2O[C@H](CO)[C@@H](O)[C@H](O)[C@H]2O)cc2oc(-c3ccc(O)cc3)cc(=O)c2c1O [HISPIDULOSIDE]
IC50 (HL-60 [2]): > 50 µg/mL | IC50 [3]: > 100 µg/mL

O=c1c(O)c(-c2ccc(O)cc2)oc2cc(O)cc(O)c12 [KAEMPFEROL]
IC50 (HL-60 [2]): 10 µg/mL (≈ 34.9 µM) | IC50 [3]: 74.4 µg/mL (≈ 260 µM)

O=c1cc(-c2ccc(O)c(O)c2)oc2cc(O)cc(O)c12 [LUTEOLIN]
Activity (HL-60 [1]): Active | IC50 (HL-60 [2]): 12.1 µg/mL (≈ 42.3 µM) | IC50 [3]: 7.2 µg/mL (≈ 25.2 µM)

COc1c(O)cc2oc(-c3ccc(O)c(O)c3)c(O)c(=O)c2c1O [PATULETIN]
Activity (HL-60 [1]): Active | IC50 (HL-60 [2]): 10.1 µg/mL (≈ 30.4 µM) | IC50 [3]: 9 µg/mL (≈ 27.1 µM)

COc1c(O[C@@H]2O[C@H](CO)[C@@H](O)[C@H](O)[C@H]2O)cc2oc(-c3ccc(O)c(O)c3)c(O)c(=O)c2c1O [PATULITRIN]
Activity (HL-60 [1]): Active | IC50 (HL-60 [2]): 8.1 µg/mL (≈ 16.4 µM) | IC50 [3]: 10.3 µg/mL (≈ 20.8 µM)
